From patent US20200354348A1, “SEMISYNTHETIC AURONES AND METHODS OF USE THEREOF” (University of Kentucky Research Foundation, priority 2018, published 2020) come the findings set out here.

The melting point is the temperature, or range, at which the solid turns liquid.

`COc1ccc2c(c1)c(/C=C1\Oc3c(ccc(OCc4c(Cl)cccc4Cl)c3C)C1=O)cn2C` [Aurone 4m, (2Z)-6-[(2,6-Dichlorobenzyl)oxy]-2-[(5-methoxy-1-methyl-1H-indol-3-yl)methylene]-7-methyl-1-benzofuran-3(2H)-one] yielded a melting point of 241 to 243 °C.
In the case of `CCn1cc(/C=C2\Oc3cc(OCc4c(Cl)cccc4Cl)ccc3C2=O)c2cc(OC)ccc21` [Aurone 4o, (2Z)-6-[(2,6-Dichlorobenzyl)oxy]-2-[(1-ethyl-5-methoxy-1H-indol-3-yl)methylene]-1-benzofuran-3(2H)-one], the melting point lay in the range of 211 to 213 °C.
The result for `CCn1cc(/C=C2\Oc3cc(OCc4c(F)cccc4Cl)ccc3C2=O)c2ccccc21` [Aurone 4p, (2Z)-6-[(2-Chloro-6-fluorobenzyl)oxy]-2-[(1-ethyl-1H-indol-3-yl)methylene]-1-benzofuran-3(2H)-one] reads 198 to 200 °C.
To `CCn1cc(/C=C2\Oc3cc(OCc4c(Cl)cccc4Cl)ccc3C2=O)c2ccccc21` [Aurone 4q, (2Z)-6-[(2,6-Dichlorobenzyl)oxy]-2-[(1-ethyl-1H-indol-3-yl)methylene]-1-benzofuran-3(2H)-one] belongs 213 to 215 °C; to `CN(C)c1ccc(/C=C2\Oc3cc(OCc4ccccc4Cl)ccc3C2=O)c(Cl)c1` [Aurone 4s, (2Z)-6-[(2-Chlorobenzyl)oxy]-2-[2-chloro-4-(dimethylamino)benzylidene]-1-benzofuran-3(2H)-one], above 220 °C; to `CCN(CC)c1ccc(/C=C2\Oc3cc(OCc4cc(F)ccc4F)ccc3C2=O)c(OC)c1` [Aurone 4t, (2Z)-6-[(2,5-Difluorobenzyl)oxy]-2-[4-(diethylamino)-2-methoxybenzylidene]-1-benzofuran-3(2H)-one], 184 to 186 °C.
